For orientation: IC50 means the concentration needed to halve the response being measured.

The test system of one data set is NE-4C. Put plainly: CCK-8 cell proliferation/cytotoxicity assay. Conditions: Mus musculus; NE-4C normal cells, 24 h. The data set is classed as cell-based. On the procedure: (§1) Cell proliferation was detected using the Cell Counting Kit-8 (CCK-8, Cat. CK04-13; Dojindo Laboratories, Kumamoto, Japan) according to the manufacturer’s instruction. To evaluate cytotoxicity, cells were seeded in a 96-well plate (FHC, 1 × 10^4 cells/well; Caki-2, PLC/PFR.5, and MCF 10A, 1 × 10^4 cells/well; AML12, HepG2, Hep3B, and Huh-7 1.2 × 10^4 cells/well; HeLa, HEK-293, A549, and PC-3, 1.5 × 10^4 cells/well; HT-29, MCF-7, C6, and NE-4C, 2 × 10^4 cells/well). After attachment and stabilization of cells for 24 h, the medium was switched with fresh containing various concentrations (0, 1, 5, 10, 25, 50, and 100 μM) of MBP-11901, and cells were incubated for 22 h. Next, CCK-8 solution was added to each well, and cells were incubated for another 2 h. Absorbance was then measured at 450 nm using a microplate reader (SpectraMax i3, Molecular Devices, San Jose, CA, USA). The IC50 and log IC50 values were calculated using GraphPad Prism (version 5.02; GraphPad PRISM software Inc. San Diego, CA, USA). All experiments were independently performed 3 times. The graph of log IC50 values represents average values.

Another data set concerns Hep3B. Put plainly: CCK-8 cell proliferation/cytotoxicity assay. The data set is classed as cell-based. The settings on record: Homo sapiens, 24 h treatment. On the procedure:
as §1

Another data set relates to HepG2. The data set can be described thus: CCK-8 cell proliferation/cytotoxicity assay. The data set is classed as cell-based. The settings on record: Homo sapiens; HepG2, 24 h treatment. Here is the method: as §1
The subject of another data set is Huh-7. The data set can be described thus: CCK-8 cell proliferation/cytotoxicity assay. The data set is classed as cell-based. Conditions: Homo sapiens; Huh-7, 24 h treatment. Here is the method: as §1
For data set [1], the system named is MCF10a breast epithelial cells. The data set can be described thus: CCK-8 cell proliferation/cytotoxicity assay. Format: cell-based. Conditions: Homo sapiens, MCF-10A; MCF10a normal cells, 24 h. Here is the method: as §1
The next data set concerns HEK-293. The data set can be described thus: CCK-8 cell proliferation/cytotoxicity assay. The data set is classed as cell-based. The settings on record: Homo sapiens, HEK293; HEK-293 normal cells, 24 h. Here is the method:
as §1

The subject of another data set is Caki-2. The data set can be described thus: CCK-8 cell proliferation/cytotoxicity assay. Format: cell-based. Conditions: Homo sapiens, CAKI-2, 24 h. Here is the method:
as §1

The subject of another data set is PC3. Put plainly: CCK-8 cell proliferation/cytotoxicity assay. The settings on record: Homo sapiens, PC-3; PC3, 24 h. Format: cell-based. On the procedure: as §1
The test system of data set [2] is FHC colon epithelial cells. Put plainly: CCK-8 cell proliferation/cytotoxicity assay. Conditions: Homo sapiens, FHC normal cells, 24 h. Format: cell-based. On the procedure: as §1
Another data set has as its target T1, FLT3(D835H) (Homo sapiens, UniProt P36888, D835H).
T1 construct: purchased Eurofins DiscoverX Corporation
The data set can be described thus: KINOMEscan competition binding. Conditions: 10000 nM; lower = stronger binding; read-out: % Control. Here is the method: (§2) The profiling of MBP-11901 against a panel of 468 kinases was performed by DiscoverX using KINOMEscan technology, an active-site-dependent competition-binding assay (Eurofins DiscoverX Corporation, San Diego, CA, USA). Binding constants (Kd) were calculated by DiscoverX using KdELECT technology, a widely used assay for comparing selectivity across the kinome. The DiscoverX platform reports the thermodynamic Kd to facilitate direct comparison of inhibitor affinity across the kinome, independent of ATP concentration.

The target of the next data set is T2, FLT3- autoinhibited (Homo sapiens, UniProt P36888).
T2 construct: purchased Eurofins DiscoverX Corporation
Put plainly: KINOMEscan competition binding. Conditions: 10000 nM; lower = stronger binding; read-out: % Control. On the procedure: as §2

The target in the next data set is T3, FLT3(D835Y) (Homo sapiens, UniProt P36888, D835Y).
T3 construct: purchased Eurofins DiscoverX Corporation
The data set can be described thus: KINOMEscan competition binding. The settings on record: 10000 nM; lower = stronger binding; read-out: % Control. On the procedure: as §2

The target in a further data set is T4, FLT3(D835V) (Homo sapiens, UniProt P36888, D835V).
T4 construct: purchased Eurofins DiscoverX Corporation
The data set can be described thus: KINOMEscan competition binding. Conditions: 10000 nM; lower = stronger binding; read-out: % Control. Here is the method: as §2

The next data set has as its target T5, FLT3(N841I) (Homo sapiens, UniProt P36888, N841I).
T5 construct: purchased Eurofins DiscoverX Corporation
Put plainly: KINOMEscan competition binding. The settings on record: 10000 nM; lower = stronger binding; read-out: % Control. On the procedure: as §2

Another data set concerns the target T6, FLT3(K663Q) (Homo sapiens, UniProt P36888, K663Q).
T6 construct: purchased Eurofins DiscoverX Corporation
The data set can be described thus: KINOMEscan competition binding. Conditions: 10000 nM; lower = stronger binding; read-out: % Control. On the procedure: as §2

The subject of data set [3] is cleaved PARP and active caspase-3 in HepG2 cells. The data set can be described thus: Western blot of apoptosis markers. Format: cell-based, human. The settings on record: HepG2, time- and dose-dependent. On the procedure: HepG2 cells were seeded in a 60 mm^2 culture dish at a density of 1.5 × 10^6 cells/dish and incubated for 24 h. Cells were treated with MBP-11901 for 24 h. Cells were harvested and protein extraction and Western blotting methods were performed as previously described. Membranes were incubated using the following diluted primary antibodies; PARP (1:1000 dilution), caspase-3 (1:1000 dilution), cleaved caspase-3 (1:1000 dilution), pFLT3 (1:500 dilution), Ras (1:1000 dilution), pc-Raf (1:1000 dilution), pMEK1/2 (1:1000 dilution), pERK1/2 (1:1000 dilution), pAKT (1:1000 dilution), pmTOR (1:1000 dilution), pVEGFR2 (1:1000 dilution), pPDGFR β (1:2000 dilution), and β-actin (1:1000 dilution) in Tris-HCl-based buffer containing 0.2% Tween-20 (T1027, Biosesang, Seongnam, Korea) (TBS-T; pH 7.5). Membranes were then incubated with horseradish-conjugated secondary antibodies (1:5000, Cell Signaling Technologies, Beverly, MA, USA) for 1 h at 25 °C. After washing with TBS-T, immunoreactive bands were visualized using the chemiluminescence western imaging system (Supernova-Q1800TM, Centronics, Daejeon, Korea). Band intensities were measured using ImageJ (Version 1.50i; US National Institutes of Health, Bethesda, MD, USA) and were normalized to β-actin.
Background: In western blotting, separated proteins are transferred to a membrane and probed.

For a further data set, the system named is HepG2 cells. The data set can be described thus: JC-1 mitochondrial membrane potential assay. The data set is classed as cell-based, human. Here is the method:
Alterations in MMP were investigated utilizing the cationic dye tetraethylbenzimidazolylcarbocyanine iodide (JC-1) according to the manufacturer’s instructions (Cat. ab113850, Abcam, Cambridge, MA, USA). HepG2 cells were seeded in a 35 mm^2 dish at a density of 7.5 × 10^5 cells/dish and incubated for 24 h. Cells were treated with MBP-11901 for 2 h and media was changed with fresh one. Briefly, after 2 d incubation, cells were washed with 1× dilution buffer, and incubated with 1 μM JC-1 in 1× dilution buffer for 30 min at 37 °C. Cells were then washed 3 times with 1× dilution buffer. Fluorescence was measured under a fluorescence microscope (ECLIPSE Ti, Nikon, Melville, NY, USA) using an excitation filter of 530 nm ± 15 nm and an emission filter of 590 nm ± 17.5 nm.

In the next data set the test system is MDA-MB-231. The data set can be described thus: CCK-8 cell proliferation/cytotoxicity assay. The settings on record: Homo sapiens, MDA-MB-231, 24 h. Format: cell-based.
Data set [4] in a line: Pharmacokinetics in mice (data not shown). The data set is classed as in vivo.

As to `NCC(N)C(=O)Nc1ccc(-c2nc3ccccc3s2)cc1` (centres unmarked) [MBP-11901], the IC50 with NE-4C worked out at 36.8 ± 3.66 µM; in the data set with Hep3B, 16.8 ± 0.88 µM; with HepG2 it was 5.16 ± 1.37 µM; with Huh-7, 29.4 ± 1.13 µM; in data set [1], 65.1 ± 1.88 µM; in the data set with HEK-293, 68.2 ± 2.79 µM. Further, the IC50 in the data set with Caki-2 was 75.7 ± 3.44 µM; in the data set with PC3, 95 ± 0.82 µM; in data set [2], 72.7 ± 1.99 µM; in the data set on MDA-MB-231 it was 62 ± 6.5 µM. The remaining binding at 10 µM on FLT3(D835H) worked out at 33%; at FLT3- autoinhibited, 19%; at FLT3(D835Y), 11%; on FLT3(D835V) it was 1.6%; on FLT3(N841I), 20%; on FLT3(K663Q), 7.5%. Further, the “levels of cleaved PARP and active caspase-3” value in data set [3] was “high levels”. For the same molecule, in the data set with HepG2 cells, the “mitochondrial potential (JC-1)” value is on record as “decrease in mitochondrial potential”. For the same molecule, the bioavailability entry in data set [4] is on record as “significantly high”. For the same molecule, in [4], the half-life result was “long”.

The values above are taken from paper PMC9030223, “MBP-11901 Inhibits Tumor Growth of Hepatocellular Carcinoma through Multitargeted Inhibition of Receptor Tyrosine Kinases” (Cancers, 2022).
